Test results as given in patent publication US10526309B2, “Pan-TAM inhibitors and Mer/Axl dual inhibitors” (The University of North Carolina at Chapel Hill, priority 2015, dated 2020).
Where two headings read alike, the source gives them in different places.

What was measured:
Mer = molecular target: T1, Mer (Homo sapiens, UniProt Q12866); assay: Mer kinase inhibition IC50; assay type: biochemical
T1 sequence (Q12866 21-999): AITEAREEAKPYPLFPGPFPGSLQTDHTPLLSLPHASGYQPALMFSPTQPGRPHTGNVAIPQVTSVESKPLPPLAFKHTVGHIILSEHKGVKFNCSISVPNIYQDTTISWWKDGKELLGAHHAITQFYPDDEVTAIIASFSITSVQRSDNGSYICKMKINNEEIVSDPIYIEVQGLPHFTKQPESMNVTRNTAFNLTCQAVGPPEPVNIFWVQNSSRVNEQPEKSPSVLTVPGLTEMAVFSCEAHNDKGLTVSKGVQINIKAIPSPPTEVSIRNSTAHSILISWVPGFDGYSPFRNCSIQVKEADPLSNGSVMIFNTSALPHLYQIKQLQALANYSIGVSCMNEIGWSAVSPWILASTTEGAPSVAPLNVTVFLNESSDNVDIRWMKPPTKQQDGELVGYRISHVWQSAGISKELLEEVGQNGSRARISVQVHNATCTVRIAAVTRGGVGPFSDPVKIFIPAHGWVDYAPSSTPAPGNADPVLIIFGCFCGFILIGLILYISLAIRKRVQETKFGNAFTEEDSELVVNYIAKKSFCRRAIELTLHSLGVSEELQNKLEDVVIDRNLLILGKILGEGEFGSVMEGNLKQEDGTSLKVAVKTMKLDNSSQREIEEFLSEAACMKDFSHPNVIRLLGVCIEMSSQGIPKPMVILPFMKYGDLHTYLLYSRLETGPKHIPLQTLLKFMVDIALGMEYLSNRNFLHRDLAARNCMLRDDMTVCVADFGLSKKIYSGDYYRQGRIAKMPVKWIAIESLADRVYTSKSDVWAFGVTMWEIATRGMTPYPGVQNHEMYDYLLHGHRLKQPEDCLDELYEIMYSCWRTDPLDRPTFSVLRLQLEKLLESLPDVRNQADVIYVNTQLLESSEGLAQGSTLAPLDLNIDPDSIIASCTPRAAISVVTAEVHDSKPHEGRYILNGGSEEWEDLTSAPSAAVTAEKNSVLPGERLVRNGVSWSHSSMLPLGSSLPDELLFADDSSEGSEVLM

Axl = molecular target: T2, Axl (Homo sapiens, UniProt P30530); assay: Axl kinase inhibition IC50; assay type: biochemical
T2 sequence (P30530 26-894): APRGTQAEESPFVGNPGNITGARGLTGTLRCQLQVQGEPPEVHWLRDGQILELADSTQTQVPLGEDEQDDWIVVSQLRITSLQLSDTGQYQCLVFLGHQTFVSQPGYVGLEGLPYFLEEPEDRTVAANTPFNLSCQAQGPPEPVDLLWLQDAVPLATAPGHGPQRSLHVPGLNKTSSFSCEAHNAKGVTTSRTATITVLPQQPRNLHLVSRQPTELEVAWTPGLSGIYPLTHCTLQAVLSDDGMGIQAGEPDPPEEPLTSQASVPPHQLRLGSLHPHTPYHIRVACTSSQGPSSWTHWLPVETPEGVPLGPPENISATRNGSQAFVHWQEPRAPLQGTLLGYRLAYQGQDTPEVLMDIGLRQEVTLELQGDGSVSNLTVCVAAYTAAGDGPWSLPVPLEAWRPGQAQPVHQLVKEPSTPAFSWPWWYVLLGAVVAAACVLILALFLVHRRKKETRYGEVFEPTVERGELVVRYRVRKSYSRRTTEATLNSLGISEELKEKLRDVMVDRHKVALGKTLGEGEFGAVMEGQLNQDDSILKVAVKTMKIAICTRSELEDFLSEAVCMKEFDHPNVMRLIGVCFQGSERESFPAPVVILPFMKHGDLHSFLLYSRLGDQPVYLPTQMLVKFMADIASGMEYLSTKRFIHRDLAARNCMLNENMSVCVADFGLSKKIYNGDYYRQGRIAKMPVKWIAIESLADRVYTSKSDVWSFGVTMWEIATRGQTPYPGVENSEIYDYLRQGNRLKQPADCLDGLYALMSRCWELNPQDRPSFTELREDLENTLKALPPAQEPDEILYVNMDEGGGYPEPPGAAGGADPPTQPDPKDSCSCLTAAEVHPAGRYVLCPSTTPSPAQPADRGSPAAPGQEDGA

Tyro3 = molecular target: T3, Tyro3 (Homo sapiens, UniProt Q06418); assay: Tyro3 kinase inhibition IC50; assay type: biochemical; conditions: read-out: Tyro3 IC50
T3 sequence (Q06418 41-890): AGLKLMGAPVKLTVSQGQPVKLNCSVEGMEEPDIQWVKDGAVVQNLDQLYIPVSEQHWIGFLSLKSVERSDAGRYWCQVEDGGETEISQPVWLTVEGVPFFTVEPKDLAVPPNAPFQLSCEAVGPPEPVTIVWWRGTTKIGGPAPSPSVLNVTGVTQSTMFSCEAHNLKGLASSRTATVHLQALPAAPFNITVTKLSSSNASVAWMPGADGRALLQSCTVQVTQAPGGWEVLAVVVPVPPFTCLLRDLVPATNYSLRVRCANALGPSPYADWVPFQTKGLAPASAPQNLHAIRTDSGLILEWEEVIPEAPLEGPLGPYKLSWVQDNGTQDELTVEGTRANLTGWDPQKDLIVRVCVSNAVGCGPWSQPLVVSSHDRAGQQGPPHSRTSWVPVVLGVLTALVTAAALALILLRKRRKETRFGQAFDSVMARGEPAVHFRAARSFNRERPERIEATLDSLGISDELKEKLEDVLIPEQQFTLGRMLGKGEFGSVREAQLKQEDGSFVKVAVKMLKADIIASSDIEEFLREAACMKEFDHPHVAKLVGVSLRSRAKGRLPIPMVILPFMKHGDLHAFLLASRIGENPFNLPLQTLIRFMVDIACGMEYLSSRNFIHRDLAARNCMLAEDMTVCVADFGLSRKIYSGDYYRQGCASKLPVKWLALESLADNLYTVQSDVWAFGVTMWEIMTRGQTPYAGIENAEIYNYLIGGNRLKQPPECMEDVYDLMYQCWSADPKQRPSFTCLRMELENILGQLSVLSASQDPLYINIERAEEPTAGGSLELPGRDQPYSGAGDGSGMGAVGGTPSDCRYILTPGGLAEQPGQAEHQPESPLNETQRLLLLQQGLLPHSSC

MDA-MB-231 cells = assay: Invasion of MDA-MB-231 multicellular tumor spheroids in 3D collagen matrix; assay type: cell-based; conditions: MDA-MB-231 spheroids, 24 hours in collagen culture; in comparison to UNC1653, UNC2025, UNC2250
Description: The invasion of triple negative highly aggressive breast adenocarcinoma cells (MDA-MB-231) cultured as multicellular tumor spheroids (MTSs) in a 3D collagen matrix was examined.

For `O[C@H]1CC[C@H](Nc2nc(Nc3ccccc3)ncc2-c2ccc(CN3CCCC3)cn2)CC1` [UNC4198A], the IC50 (Mer; Example 6, read-out: MerTK IC50) was 0.98 nM, the IC50 (Mer; Table 1, read-out: Mer IC50) was < 10 nM and the IC50 (Axl; Example 6) was 5.5 nM. For the same compound, the IC50 (Axl; Table 1) was < 10 nM, the IC50 (Tyro3; Example 6) was 0.56 nM and the IC50 (Tyro3; Table 1) was < 10 nM. For the same compound, the levels of invasion (MDA-MB-231 cells) was “decreased levels of invasion”.
